≈ marks a conversion by molar mass, not a printed value. Where two headings read alike, the source gives them in different places.
Experiments:
[1] = system: Mycobacterium tuberculosis H37Ra; test: Antimycobacterial microdilution broth MIC (resazurin), Mtb H37Ra; format: cell-based; settings: Mycobacterium tuberculosis, H37RA, read-out: MIC Mtb H37Ra
[2] = system: Mycolicibacterium smegmatis DSM 43465; test: Antimycobacterial microdilution broth MIC (resazurin), M. smegmatis; format: cell-based; settings: DSM43465, read-out: MIC M. smegmatis
[3] = system: Mycolicibacterium aurum DSM 43999; test: Antimycobacterial microdilution broth MIC (resazurin), M. aurum; format: cell-based; settings: DSM43999, read-out: MIC M. aurum
HepG2 cell line = test: Cytotoxicity CellTiter 96, HepG2; format: cell-based, human; settings: Homo sapiens, HepG2, 24 h, 24 h incubation; ^c compound precipitated in the testing medium; ^d over the limit of tested concentrations
Procedure: The cytotoxicity of final compounds was determined in human hepatocellular carcinoma cell line HepG2.
Cytotoxicity determination
Human hepatocellular liver carcinoma cell line HepG2 purchased from Health Protection Agency Culture Collections (ECACC, Salisbury, UK) was cultured in MEM (Minimum Essentials Eagle Medium, Sigma–Aldrich) supplemented with 10% fetal bovine serum (PAA Laboratories, Pasching, Austria), 1% L-glutamine solution (Sigma–Aldrich) and non-essential amino acid solution (Sigma–Aldrich) in a humidified atmosphere containing 5% CO2 at 37 °C. For subculturing, the cells were harvested after trypsin/EDTA (Sigma–Aldrich) treatment at 37 °C. To evaluate cytotoxicity, the cells treated with the tested substances were used as experimental groups whereas untreated HepG2 cells served as controls. The cells were seeded in density 10,000 cells per well in a 96 well plate. The next day the cells were treated with each of the tested substances dissolved in DMSO. The tested substances were
in triplicates according to their solubility. Simultaneously, the controls representing 100% cell viability, 0% cell viability (the cells treated with 10% DMSO), no cell control and vehiculum controls were also
the reagent from the kit CellTiter 96 AQueous One Solution Cell Proliferation Assay (CellTiter 96; PROMEGA, Fitchburg, USA) was added. After 2h incubation at 37 °C, absorbance of samples was recorded at 490 nm (TECAN, Infinita M200, Austria). A standard toxicological parameter IC50 was calculated by nonlinear regression from a semilogarithmic plot of incubation concentration versus percentage of absorbance relative to untre ated controls using GraphPad Prism 8 software.

[4] = system: Staphylococcus aureus CCM 4223, ATCC 29213; test: Antibacterial microdilution broth MIC, SA; format: cell-based
[5] = system: Staphylococcus aureus subsp. aureus CCM 4750, ATCC 43300 (MRSA); test: Antibacterial microdilution broth MIC, MRSA; format: cell-based
[6] = system: Staphylococcus epidermidis CCM 4418, ATCC 12228; test: Antibacterial microdilution broth MIC, SE; format: cell-based
[7] = system: Enterococcus faecalis CCM 4224, ATCC 29212; test: Antibacterial microdilution broth MIC, EF; format: cell-based
[8] = system: Escherichia coli CCM 3954, ATCC 25922; test: Antibacterial microdilution broth MIC, EC; format: cell-based
[9] = system: Acinetobacter baumannii DSM 30007, ATCC 19606; test: Antibacterial microdilution broth MIC, ACI; format: cell-based
[10] = system: Pseudomonas aeruginosa CCM 3955, ATCC 27853; test: Antibacterial microdilution broth MIC, PA; format: cell-based
[11] = system: Candida albicans CCM 8320, ATCC 24433; test: Antifungal microdilution broth MIC, CA
[12] = system: Candida krusei CCM 8271, ATCC 6258; test: Antifungal microdilution broth MIC, CK; settings: Pichia kudriavzevii
[13] = system: Candida parapsilosis CCM 8260, ATCC 22019; test: Antifungal microdilution broth MIC, CP; settings: Lodderomyces parapsilosis
[14] = system: Candida tropicalis CCM 8264, ATCC 750; test: Antifungal microdilution broth MIC, CT
[15] = system: Aspergillus fumigatus ATCC 204305; test: Antifungal microdilution broth MIC, AF
[16] = system: Lichtheimia corymbifera CCM 8077; test: Antifungal microdilution broth MIC, LC
[17] = system: Trichophyton interdigitale CCM 8377, ATCC 9533; test: Antifungal microdilution broth MIC, TI; settings: Trichophyton interdigitale
[18] = system: Aspergillus flavus CCM 8363; test: Antifungal microdilution broth MIC, AFla
[19] = system: Klebsiella pneumoniae CCM 4415, ATCC 10031; test: Antibacterial microdilution broth MIC, KP
[20] = Staphylococcus aureus, 24 h; read-out: MIC SA 24h
[21] = Staphylococcus aureus, 48 h; read-out: MIC SA 48h
[22] = Staphylococcus aureus, 24 h; read-out: MIC MRSA 24h
[23] = Staphylococcus aureus, 48 h; read-out: MIC MRSA 48h
[24] = ATCC204305, 24 h, read-out: MIC AF 24h
[25] = ATCC204305, 48 h, read-out: MIC AF 48h
[26] = CCM8077, 24 h, read-out: MIC LC 24h
[27] = CCM8077, 48 h, read-out: MIC LC 48h
[28] = CCM8363, 24 h, read-out: MIC AFla 24h
[29] = CCM8363, 48 h, read-out: MIC AFla 48h

Compound | MIC ([1]; Calculated from MIC (μg/mL)) [µM] | MIC [1] [µg/mL] | MIC [2] [µg/mL] | MIC [3] [µg/mL] | IC50 (HepG2 cell line) [µM] | MIC ([6]; 24 h, read-out: MIC SE 24h) [µM] | MIC ([6]; 48 h, read-out: MIC SE 48h) [µM] | MIC ([7]; 24 h, read-out: MIC EF 24h) [µM] | MIC ([7]; 48 h, read-out: MIC EF 48h) [µM] | MIC ([8]; 24 h, read-out: MIC EC 24h) [µM] | MIC ([8]; 48 h, read-out: MIC EC 48h) [µM] | MIC ([9]; 24 h, read-out: MIC ACI 24h) [µM] | MIC ([9]; 48 h, read-out: MIC ACI 48h) [µM] | MIC ([10]; 24 h, read-out: MIC PA 24h) [µM] | MIC ([10]; 48 h, read-out: MIC PA 48h) [µM] | MIC ([11]; 24 h, read-out: MIC CA 24h) [µM] | MIC ([11]; 48 h, read-out: MIC CA 48h) [µM] | MIC ([12]; 24 h, read-out: MIC CK 24h) [µM] | MIC ([12]; 48 h, read-out: MIC CK 48h) [µM] | MIC ([13]; 24 h, read-out: MIC CP 24h) [µM] | also measured
COc1ccccc1CC(=O)Nc1ccc(Cl)cn1 [Compound 5] | > 1800 | > 500 | > 500 | > 500 | > 250 | > 500 | > 500 | > 500 | > 500 | > 500 | > 500 | > 500 | > 500 | > 500 | > 500 | > 500 | > 500 | > 500 | > 500 | > 500 | MIC [4, 20]: > 500 µM; MIC [4, 21]: > 500 µM; MIC [5, 22]: > 500 µM; MIC [5, 23]: > 500 µM; MIC ([13]; 48 h, read-out: MIC CP 48h): > 500 µM; MIC ([14]; 24 h, read-out: MIC CT 24h): > 500 µM; MIC ([14]; 48 h, read-out: MIC CT 48h): > 500 µM; MIC [15, 24]: > 500 µM; MIC [15, 25]: > 500 µM; MIC [16, 26]: > 500 µM; MIC [16, 27]: > 500 µM; MIC ([17]; 72 h, read-out: MIC TI 72h): 500 µM (≈ 138 µg/mL); MIC ([17]; 120 h, read-out: MIC TI 120h): 500 µM (≈ 138 µg/mL); MIC [18, 28]: > 500 µM; MIC [18, 29]: > 500 µM; MIC KP 24h [19]: > 500 µM; MIC KP 48h [19]: > 500 µM
COc1ccccc1CC(=O)Nc1cccc(Cl)n1 [Compound 6] | > 1800 | > 500 | > 500 | > 500 | > 500 | > 500 | > 500 | > 500 | > 500 | > 500 | > 500 | > 500 | > 500 | > 500 | > 500 | > 500 | > 500 | > 500 | > 500 | > 500 | MIC [4, 20]: > 500 µM; MIC [4, 21]: > 500 µM; MIC [5, 22]: > 500 µM; MIC [5, 23]: > 500 µM; MIC ([13]; 48 h, read-out: MIC CP 48h): > 500 µM; MIC ([14]; 24 h, read-out: MIC CT 24h): > 500 µM; MIC ([14]; 48 h, read-out: MIC CT 48h): > 500 µM; MIC [15, 24]: > 500 µM; MIC [15, 25]: > 500 µM; MIC [16, 26]: > 500 µM; MIC [16, 27]: > 500 µM; MIC ([17]; 72 h, read-out: MIC TI 72h): > 500 µM; MIC ([17]; 120 h, read-out: MIC TI 120h): > 500 µM; MIC [18, 28]: > 500 µM; MIC [18, 29]: > 500 µM; MIC KP 24h [19]: > 500 µM; MIC KP 48h [19]: > 500 µM
COc1cccc(CC(=O)Nc2ccccn2)c1 [Compound 7, 2-(3-methoxyphenyl)-N-(pyridin-2-yl)acetamide] | 516 | 125 | 250 (≈ 1030 µM) | 250 (≈ 1030 µM) | > 500 | > 125 | > 125 | > 125 | > 125 | > 125 | > 125 | > 125 | > 125 | > 125 | > 125 | > 125 | > 125 | > 125 | > 125 | > 125 | MIC ([4]; Staphylococcus aureus, 24 h, read-out: MIC SA 24h): 125 µM (≈ 30.3 µg/mL); MIC ([4]; Staphylococcus aureus, 48 h, read-out: MIC SA 48h): 125 µM (≈ 30.3 µg/mL); MIC ([5]; Staphylococcus aureus, 24 h, read-out: MIC MRSA 24h): > 125 µM; MIC ([5]; Staphylococcus aureus, 48 h, read-out: MIC MRSA 48h): > 125 µM; MIC ([13]; 48 h, read-out: MIC CP 48h): > 125 µM; MIC ([14]; 24 h, read-out: MIC CT 24h): > 125 µM; MIC ([14]; 48 h, read-out: MIC CT 48h): > 125 µM; MIC [15, 24]: > 125 µM; MIC [15, 25]: > 125 µM; MIC [16, 26]: > 125 µM; MIC [16, 27]: > 125 µM; MIC ([17]; 72 h, read-out: MIC TI 72h): > 125 µM; MIC ([17]; 120 h, read-out: MIC TI 120h): > 125 µM; MIC [18, 28]: > 125 µM; MIC [18, 29]: > 125 µM; MIC KP 24h [19]: > 125 µM; MIC KP 48h [19]: > 125 µM

From paper PMC11748363, “Antimicrobial and Antiproliferative Properties of 2‐Phenyl‐N‐(Pyridin‐2‐yl)acetamides” (Chemical Biology & Drug Design, 2025)
